Measured values published in patent publication US5972873A, “4-substituted-phenyl-boronic acids as enzyme stabilizers” (Novo Nordisk A/S, priority 1995, dated 1999).
Blank lines part the entries; values can stand above or below the compound they belong to.

Columns and labels:
proteolytic enzymes = settings: background statement; WO 92/19707 for aryl boronic acids; cited from earlier work
Savinase [1] = target: T1, Savinase (Lederbergia lenta, UniProt P29600); test: Storage Stability Test in a Commercial Detergent (Omo Micro), Example 4; type: biochemical; design: purchased Novo Nordisk A/S; settings: 1.33 mM stabilizer (boric acid 160 mM), 1% w/w Savinase (8 KNPU/g), 1% w/w Lipolase (100 KLU/g), 0, 7, 15, and 21 days at 40° C.
T1 sequence (P29600 1-269): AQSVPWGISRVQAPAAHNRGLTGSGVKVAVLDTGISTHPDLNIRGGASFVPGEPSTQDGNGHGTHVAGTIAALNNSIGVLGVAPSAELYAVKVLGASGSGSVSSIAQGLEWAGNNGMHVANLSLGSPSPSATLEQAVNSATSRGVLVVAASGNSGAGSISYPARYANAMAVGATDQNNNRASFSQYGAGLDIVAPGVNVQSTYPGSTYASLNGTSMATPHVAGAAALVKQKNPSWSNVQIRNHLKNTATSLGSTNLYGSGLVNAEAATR
Description: An improvement factor is thus derived: [formula]
The inhibition effectiveness IFI of 4-formyl-phenyl-boronic acid was also found in a commercial detergent Omo Micro.
Omo Micro was bought in a Danish supermarket. The enzymes were inactivated at 90° C. (overnight).
The following dosages in the detergent were used:
4-Formyl-phenyl-boronic acid: 1.33 mM, or
Protease: 1% w/w Savinase (8 KNPU/g), and
Lipase: 1% w/w Lipolase (100 KLU/g).
Storage: 0, 7, 15, and 21 days at 40° C.

Savinase [2] = target: T1, Savinase; test: Determination of Ki: inhibition of Savinase (SAAPFpNA substrate); type: biochemical; design: purchased Novo Nordisk A/S; settings: 0.1M Tris-HCl pH 8.6, 25° C.
From the text: b) Determination of Ki : The inhibition constant Ki may be determined by using standard methods, for reference see Keller et al, Biochem. Biophys. Res. Com. 176, 1991, pp.401-405; J. Bieth in Bayer-Symposium "Proteinase Inhibitors", pp. 463-469, Springer-Verlag, 1974 and Lone Kierstein Hansen in "Determination of Specific Activities of Selected Detergent Proteases using Protease Activity, Molecular Weights, Kinetic Parameters and Inhibition Kinetics", PhD-report, Novo Nordisk A/S and University of Copenhagen, 1991.
The inhibition constant Ki for the inhibition of Savinase™ (available from Novo Nordisk A/S) was determined using standard methods under the following conditions: […]
The initial rate of substrate hydrolysis was determined at nine substrate concentrations in the range of 0.01 to 2 mM using a Cobas Fara automated spectrophotometer. The kinetic parameters Vmax and Km were determined using ENZFITTER (a non-linear regression data analysis program).
kcat was calculated from the equation Vmax =kcat X [Eo ]. The concentration of active enzyme [Eo ] was determined by active site titration using tight-binding protein proteinase inhibitors. The inhibition constant Ki was calculated from plots of Km /kcat as a function of the concentration of inhibitor. The inhibitors were assumed to be 100% pure and the molar concentrations were determined using weighing numbers and molecular weights.

Savinase [3] = target: T1, Savinase; test: Storage Stability Test in Liquid Detergent (Detergent base, US-type), Example 3; type: biochemical; design: purchased Novo Nordisk A/S; settings: for Improvement Factor (IFI): relative to Boric Acid, US-type detergent, 1% w/w Savinase (14 KNPU/g), stabilizer 5 mmole/kg (boric acid 160 mmole/kg), 0, 3, 7 and 14 days at 30° C.
Description: (§1) a) Storage Stability Test in Liquid Detergent: Enzyme(s) and stabilizer are added to a liquid detergent formulation and stored at well defined conditions. The enzyme activity of each enzyme is determined as a function of time, e.g. after 0, 3, 7 and 14 days.
(§2) To calculate the inhibition efficiency from the storage stability date a reaction mechanism is proposed.
(§3) From these reactions three coupled differential equations are derived describing the deactivation of P, L and PI. The reaction rate constants are derived from storage stability data by the use of a parameter estimation method (Gauss-Newton with the Levenberg modification). The storage stability data give the concentration of (P+PI) and L as a function of time.
(§4) Reaction IV is excluded from the system to reduce the number of parameters thereby describing the stability of the inhibited enzyme by only one reaction rate constant (from equation V).
(§5) In all experiments there is a large surplus of inhibitor molecules compared to protease molecules, i.e. a constant concentration of inhibitor (corresponding to the added amount of inhibitor) is a reasonable assumption.
(§6) An improvement factor is thus derived: [formula] IFI measures the inhibition efficiency given by the inhibition constants KI from reaction III.
Phenyl boronic acid derivatives were also tested in storage stability tests in liquid detergents using the method described previously under the following conditions: […]

subtilisin = settings: Keller et al, 1991; cited from earlier work
Savinase [4] = target: T1, Savinase; settings: US-type detergent; 1% w/w Savinase (14 KNPU/g); 5 mmole/kg (boric acid 160 mmole/kg); 0, 2, 7 and 14 days at 30° C.
Description: as §1, §2, §3, §4, §5, §6

SMILES: OB(O)O [Boric acid]
inhibition of proteolytic enzymes (proteolytic enzymes): reversibly inhibit proteolytic enzymes

SMILES: OB(O)c1cc(Cl)cc(Cl)c1 [3,5-dichlorophenylboronic acid]
capacity as subtilisin inhibitor (subtilisin): particularly effective

SMILES: CB(O)O [methylboronic acid]
capacity as subtilisin inhibitor (subtilisin): poorest inhibitor

SMILES: O=C(O)c1ccc(B(O)O)cc1 [4-Carboxybenzeneboronic acid]
IFI (Savinase [4]): 22

More lines, now with the values ahead:

inhibition effectiveness IFI (Savinase [1]): 2500
Ki (Savinase [2]): 300 µM
storage stability properties versus 2-formyl-phenyl-boronic acid (Savinase [3]; calculated on molar basis): at least 25 times better
storage stability properties versus 3-formyl-phenyl-boronic acid (Savinase [3]; calculated on molar basis): at least four times better
storage stability properties versus acetamidophenyl boronic acid (Savinase [3]; calculated on molar basis): at least three times better
Improvement Factor (IFI) (Savinase [3]): 1000
SMILES: O=Cc1ccc(B(O)O)cc1 [4-formyl-phenyl-boronic acid, 4-Formyl-phenyl-boronic acid]

Ki (Savinase [2]): 1000 µM
Improvement Factor (IFI) (Savinase [3]): 300
SMILES: CC(=O)Nc1cccc(B(O)O)c1 [acetamidophenyl boronic acid]

Improvement Factor (IFI) (Savinase [3]): 36
SMILES: O=Cc1ccccc1B(O)O [2-formyl-phenyl-boronic acid]

Improvement Factor (IFI) (Savinase [3]): 230
SMILES: O=Cc1cccc(B(O)O)c1 [3-formyl-phenyl-boronic acid]
